Laboratory results published in patent publication EP1137645B1, “ALPHA-METHYLBENZYL-CONTAINING THIOUREA INHIBITORS OF HERPES VIRUSES CONTAINING A […] GROUP” (Wyeth, priority 1998, dated 2000).
In brackets after ≈: the same amount, converted by molar mass. Read-outs that look alike come from different tables or passages of the source.

Experiments:
[1] = tested on: HCMV recombinant mutant virus whose genome contains the prokaryotic beta-glucuronidase gene; assay: microbe, parasite or virus in culture; assay type: cell-based, human cytomegalovirus; conditions: Human betaherpesvirus 5, Fibroblast
Outline: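 Human foreskin fibroblasts infected with HCMV recombinant carrying beta-glucuronidase under a viral promoter (e.g. RV145) in presence of compound. At 96 h post-infection, lysates assayed for beta-glucuronidase by colorimetric or fluorogenic substrate as replication readout; IC50 estimated from varying compound amounts.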

HSV- I = assay: HSV antiviral (ELISA) assay; assay type: cell-based; conditions: read-out: IC50 (ug/ml) HSV
Outline: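 Vero cells in DMEM with 2% FBS treated with compound 30 min before HSV-1 infection (MOI 0.006), then incubated ~24 h at 37°C. Viral replication measured by ELISA against glycoprotein D with β-galactosidase-linked secondary and fluorogenic substrate (ex 365/em 450 nm); IC50 relative to untreated fluorescence.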

VZV strain Ellen = assay: VZV antiviral (ELISA) assay; assay type: cell-based
Outline: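 HFF cells infected with VZV Ellen at multiplicity below 0.1 overnight, then mixed infected/uninfected cells seeded with compound in DMEM/2% FBS and incubated three days at 37°C, 5% CO2.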

[2] = read-out: IC50 ug/ml HCMV, HCMV, human foreskin fibroblasts
[3] = Human alphaherpesvirus 3, HFF, read-out: % inhibition 10 ug/ml VZV
[4] = Human alphaherpesvirus 3, HFF, read-out: IC50 (ug/ml) VZV
[5] = Human alphaherpesvirus 3, read-out: % inhibition 10 ug/ml VZV, 10 ug/ml, VZV strain Ellen, HFF cells, ELISA
[6] = Human alphaherpesvirus 3, VZV strain Ellen, HFF cells, ELISA, read-out: IC50 (ug/ml) VZV
[7] = Human alphaherpesvirus 3, HFF, read-out: IC50 (ug/ml) VZV, VZV strain Ellen, HFF cells, ELISA

Row | Structure (SMILES) | IC50 [1, 2] | IC50 (HSV- I; HSV- I, Vero cells, ELISA) | inhibition at 10 µg/mL (VZV strain Ellen; [3]) | IC50 (VZV strain Ellen; [4]) | IC50 ([1]; read-out: IC50 ug/ml HCMV) | inhibition at 10 µg/mL (VZV strain Ellen; [5]) | IC50 (VZV strain Ellen; [6]) | IC50 (HSV- I; Vero) | IC50 (VZV strain Ellen; [7])
1 | COc1cc(OC)c(NC(=S)Nc2ccc(NC(=O)c3ccccc3SC)cc2)cc1Cl [Example 194, N-{4-[3-(5-Chloro-2,4-dimethoxy-phenyl)-thioureido]-phenyl}-2-methyl-sulfanyl-benzamide] | > 10 µg/mL | 1.5 µg/mL (≈ 3.07 µM) | 45% | > 10 µg/mL | – | – | – | – | –
2 | CCN(CC)CC(=O)Nc1ccc(NC(=S)Nc2ccc(NC(=O)c3ccccc3F)cc2)cc1Cl [Example 414, N-(4-{3-[3-Chloro-4-(2-diethylamino-acetylamino)-phenyl]-thioureido}-phenyl)-2-fluoro-benzamide] | > 10 µg/mL | 6 µg/mL (≈ 11.4 µM) | 70% | > 15 µg/mL | – | – | – | – | –
3 | Nc1c(Cl)cc(NC(=S)Nc2ccc(NC(=O)c3ccccc3F)cc2)cc1Cl [Example 518, N-{4-[3-(4-Amino-3,5-dichloro-phenyl)-thioureido]-phenyl}-2-fluoro-benzamide] | 4 µg/mL (≈ 8.9 µM) | 0.25 µg/mL (≈ 0.556 µM) | 32% | > 10 µg/mL | – | – | – | – | –
4 | Cc1ccc(NC(=S)Nc2ccc(NC(=O)c3ccccc3F)cc2)cc1Cl [Example 231, N-{4-[3-(3-Chloro-4-methyl-phenyl)-thioureido]-phenyl}-2-fluoro-benzamide] | > 10 µg/mL | 0.5 µg/mL (≈ 1.21 µM) | 11% | > 10 µg/mL | – | – | – | – | –
5 | Cc1cccc(NC(=S)Nc2ccc(NC(=O)c3ccccc3F)cc2)c1 [Example 432, 2-Fluoro-N-[4-(3-m-tolyl-thioureido)-phenyl]-benzamide] | – | 1.6 µg/mL (≈ 4.22 µM) | – | – | 10 µg/mL (≈ 26.4 µM) | 0% | > 10 µg/mL | – | –
6 | Cc1ccc(NC(=S)Nc2ccc(NC(=O)c3c(F)cccc3F)cc2)cc1Cl [Example 235, N-{4-[3-(3-Chloro-4-methyl-phenyl)-thioureido]-phenyl}-2,6-difluoro-benzamide] | > 10 µg/mL | 0.2 µg/mL (≈ 0.463 µM) | 50% | > 10 µg/mL | – | – | – | – | –
7 | O=C(Nc1ccc(NC(=S)NCc2ccccc2)cc1)c1ccccc1F [Example 536, N-[4-(3-Benzyl-thioureido)-phenyl]-2-fluoro-benzamide] | – | > 10 µg/mL | – | – | > 10 µg/mL | – | > 10 µg/mL | – | –
8 | CN(C)c1cccc(NC(=S)Nc2ccc(NC(=O)c3ccccc3F)cc2)c1 [Example 454, N-{4-[3-(3-Dimethylamino-phenyl)-thioureido]-phenyl}-2-fluoro-benzamide] | 4 µg/mL (≈ 9.79 µM) | 1.5 µg/mL (≈ 3.67 µM) | 55% | > 10 µg/mL | – | – | – | – | –
9 | Nc1c(Br)cc(NC(=S)Nc2ccc(NC(=O)c3ccccc3F)cc2)cc1Br [Example 519, N-{4-[3-(4-Amino-3,5-dibromo-phenyl)-thioureido]-phenyl}-2-fluoro-benzamide] | – | 0.4 µg/mL (≈ 0.743 µM) | – | – | 1.7 µg/mL (≈ 3.16 µM) | 18% | > 10 µg/mL | – | –
10 | O=C(Nc1ccc(NC(=S)Nc2cc(Cl)ccc2O)cc1)c1ccccc1F [Example 1001, N-{4-[3-(5-Chloro-2-hydroxy-phenyl)-thioureido]-phenyl}-2-fluoro-benzamide] | 2.6 µg/mL (≈ 6.25 µM) | – | – | – | – | – | – | 4.3 µg/mL (≈ 10.3 µM) | 3.6 µg/mL (≈ 8.66 µM)
11 | COc1cc(OC)c(NC(=S)Nc2ccc(NC(=O)c3ccccc3OC)cc2)cc1Cl [Example 119, N-{4-[3-(5-Chloro-2,4-dimethoxy-phenyl)-thioureido]-phenyl}-2-methoxy-benzamide] | > 10 µg/mL | 0.5 µg/mL (≈ 1.06 µM) | 1% | > 10 µg/mL | – | – | – | – | –
12 | O=C(Nc1ccc(NC(=S)Nc2ccc(Cl)c(C(F)(F)F)c2)cc1)c1c(F)cccc1F [Example 380, N-{4-[3-(4-Chloro-3-trifluoromethyl-phenyl)-thioureido]-phenyl}-2,6-difluoro-benzamide] | > 10 µg/mL | > 10 µg/mL | 50% | > 10 µg/mL | – | – | – | – | –
13 | CC(NC(=S)Nc1ccc(NC(=O)c2ccccc2F)cc1)c1ccccc1Br (stereo not shown) [Example 783, N-(4-{3-[1-(2-Bromo-phenyl)-ethyl]-thioureido}-phenyl)-2-fluoro-benzamide] | 1.1 µg/mL (≈ 2.33 µM) | – | – | – | – | – | – | > 10 µg/mL | 0.3 µg/mL (≈ 0.635 µM)
14 | O=C(CN1CCOCC1)Nc1ccc(NC(=S)Nc2ccc(NC(=O)c3ccccc3F)cc2)cc1Cl [Example 367, N-(4-{3-[3-Chloro-4-(2-morpholin-4-yl-acetylamino)-phenyl]-thioureido}-phenyl)-2-fluoro-benzamide] | > 10 µg/mL | > 10 µg/mL | 20% | > 10 µg/mL | – | – | – | – | –
15 | CS(=O)(=O)c1ccc(NC(=S)Nc2ccc(NC(=O)c3c(F)cccc3F)cc2)cc1Cl [Example 393, N-{4-[3-(3-Chloro-4-methanesulfonyl-phenyl)-thioureido]-phenyl}-2,6-difluoro-benzamide] | 0.5 µg/mL (≈ 1.01 µM) | > 10 µg/mL | 62% | > 10 µg/mL | – | – | – | – | –
16 | CC(NC(=S)Nc1ccc(NC(=O)c2nccc3ccccc23)cc1)c1ccc(C#N)cc1 (stereo not shown) [Example 979, Isoquinoline-1-carboxylic acid (4-{3-[1-(4-cyano-phenyl)-ethyl]-thioureido}-phenyl)-amide] | 3.7 µg/mL (≈ 8.19 µM) | – | – | – | – | – | – | > 10 µg/mL | 0.13 µg/mL (≈ 0.288 µM)
17 | CC(NC(=S)Nc1ccc(NC(=O)c2cc3ccccc3o2)cc1)c1ccc(C#N)cc1 (stereo not shown) [Example 983, Benzofuran-2-carboxylic acid (4-{3-[1-(4-cyano-phenyl)-ethyl]-thioureido}-phenyl)-amide] | 1.1 µg/mL (≈ 2.5 µM) | > 10 µg/mL | – | 0.6 µg/mL (≈ 1.36 µM) | – | – | – | – | –
18 | CN(C)c1cc(Cl)cc(NC(=S)Nc2ccc(NC(=O)c3ccccc3F)cc2)c1 [Example 523, N-{4-[3-(3-Chloro-5-dimethylamino-phenyl)-thioureido]-phenyl}-2-fluoro-benzamide] | 3.2 µg/mL (≈ 7.22 µM) | 0.6 µg/mL (≈ 1.35 µM) | 75% | 4 µg/mL (≈ 9.03 µM) | – | – | – | – | –
19 | CC(C)C(NC(=S)Nc1ccc(NC(=O)c2ccccc2F)cc1)c1ccc(F)cc1 (stereo not shown) [Example 790, 2-Fluoro-N-(4-{3-[1-(4-fluoro-phenyl)-2-methyl-propyl]-thioureido}-phenyl)-benzamide] | 1.5 µg/mL (≈ 3.41 µM) | – | – | – | – | – | – | > 10 µg/mL | 2.5 µg/mL (≈ 5.69 µM)
20 | O=C(Nc1ccc(NC(=S)NCCc2ccc(F)cc2)cc1)c1ccccc1F [Example 553, 2-Fluoro-N-(4-{3-[2-(4-fluoro-phenyl)-ethyl]-thioureido}-phenyl)-benzamide] | – | > 10 µg/mL | – | – | > 0.5 µg/mL | – | 7 µg/mL (≈ 17 µM) | – | –
21 | COc1cccc(NC(=S)Nc2ccc(NC(=O)c3ccccc3F)cc2)c1 [Example 487, 2-Fluoro-N-{4-[3-(3-methoxy-phenyl)-thioureido]-phenyl}-benzamide] | – | 4 µg/mL (≈ 10.1 µM) | – | – | 10 µg/mL (≈ 25.3 µM) | 48% | > 10 µg/mL | – | –
22 | Nc1cc(Cl)cc(NC(=S)Nc2ccc(NC(=O)c3ccccc3F)cc2)c1 [Example 442, N-{4-[3-(3-Amino-5-chloro-phenyl)-thioureido]-phenyl}-2-fluoro-benzamide] | 2 µg/mL (≈ 4.82 µM) | 1 µg/mL (≈ 2.41 µM) | 81% | 8 µg/mL (≈ 19.3 µM) | – | – | – | – | –
23 | CSc1ccc(NC(=S)Nc2ccc(NC(=O)c3ccccc3F)cc2)cc1Cl [Example 847, N-{4-[3-(3-Chloro-4-methylsulfanyl-phenyl)-thioureido]-phenyl}-2-fluoro-benzamide] | 0.3 µg/mL (≈ 0.673 µM) | 0.4 µg/mL (≈ 0.897 µM) | 65% | > 10 µg/mL | – | – | – | – | –
24 | COc1ccc(NC(=S)Nc2ccc(NC(=O)c3ccccc3F)cc2)cc1I [Example 810, 2-Fluoro-N-{4-[3-(3-iodo-4-methoxy-phenyl)-thioureido]-phenyl}-benzamide] | – | 1.1 µg/mL (≈ 2.11 µM) | – | – | 2.7 µg/mL (≈ 5.18 µM) | – | > 7.5 µg/mL | – | –
25 | CC(C)COc1ccc(NC(=S)Nc2ccc(NC(=O)c3ccccc3F)cc2)cc1Cl [Example 994, N-{4-[3-(3-Chloro-4-isobutoxy-phenyl)-thioureido]-phenyl}-2-fluoro-benzamide] | > 10 µg/mL | – | – | – | – | – | – | > 10 µg/mL | > 10 µg/mL
26 | Cc1ccccc1C(=O)Nc1ccc(NC(=S)Nc2ccc(N(C)C3CCN(Cc4ccccc4)C3)c(Cl)c2)cc1 (stereo not shown) [Example 374, N-[4-(3-{4-[(1-Benzyl-pyrrolidin-3-yl)-methyl-amino]-3-chloro-phenyl}-thioureido)-phenyl]-2-methyl-benzamide] | 3 µg/mL (≈ 5.14 µM) | 3 µg/mL (≈ 5.14 µM) | 70% | 4 µg/mL (≈ 6.85 µM) | – | – | – | – | –
27 | O=C(Nc1ccc(NC(=S)Nc2ccc3[nH]cnc3c2)cc1)c1ccccc1F [Example 496, N-{4-[3-(1H-Benzoimidazol-5-yl)-thioureido]-phenyl}-2-fluoro-benzamide] | – | > 10 µg/mL | – | – | 10 µg/mL (≈ 24.7 µM) | 25% | > 10 µg/mL | – | –
28 | Nc1nccc(-c2ccc(NC(=S)Nc3ccc(NC(=O)c4ccccc4F)cc3)cc2Cl)n1 [Example 502, N-(4-{3-[4-(2-Amino-pyrimidin-4-yl)-3-chloro-phenyl]-thioureido}-phenyl)-2-fluoro-benzamide] | 1.8 µg/mL (≈ 3.65 µM) | > 10 µg/mL | 13% | > 10 µg/mL | – | – | – | – | –
29 | CC(NC(=S)Nc1ccc(NC(=O)c2ccccc2F)cc1)c1ccc2ccccc2c1 (stereo not shown) [Example 799, 2-Fluoro-N-{4-[3-(1-naphthalen-2-yl-ethyl)-thioureido]-phenyl}-benzamide] | 1.7 µg/mL (≈ 3.83 µM) | – | – | – | – | – | – | > 10 µg/mL | > 7.5 µg/mL
